Assay results as given in US12077503B2, “Substituted cyclic amides and their use as herbicides” (FMC CORPORATION, priority 2015, dated 2024).

Experiments:
Type in all cases: in vivo
[1] = system: wheat (Triticum aestivum); assay: Test A postemergence; settings: Triticum aestivum, post-emergence, 240 h, 125 g ai/ha, postemergence, visual injury vs untreated controls after approx. 10 d; 0 = no effect, 100 = complete control; read-out: Wheat plant response rating (0 to 100 scale)
In short: (§1)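 Each rating is a visual injury score from 0 to 100 given about 10 d after treatment, judged against untreated controls kept alongside in the greenhouse. In loam soil–sand blend, seeds got a preemergence directed soil spray, while postemergence plants were 2 to 10 cm tall at spraying.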

[2] = system: Galium (catchweed bedstraw, Galium aparine); assay: Test A postemergence; settings: Galium, post-emergence, 240 h
In short: as §1

[3] = system: pigweed (Amaranthus retroflexus); assay: Test A postemergence; settings: Amaranthus retroflexus, post-emergence, 240 h, 125 g ai/ha, postemergence, visual injury vs untreated controls after approx. 10 d; 0 = no effect, 100 = complete control; read-out: Pigweed plant response rating (0 to 100 scale)
In short: as §1

[4] = system: barnyardgrass (Echinochloa crus-galli); assay: Test A postemergence; settings: Echinochloa crus-galli, post-emergence, 240 h
In short: as §1

[5] = system: ryegrass, Italian (Italian ryegrass, Lolium multiflorum); assay: Test A postemergence; settings: Lolium multiflorum, post-emergence, 240 h, 125 g ai/ha, postemergence, visual injury vs untreated controls after approx. 10 d; 0 = no effect, 100 = complete control; read-out: Ryegrass, Italian plant response rating (0 to 100 scale)
In short: as §1

corn (Zea mays) = assay: Test A postemergence; settings: Zea mays, post-emergence, 240 h
In short: as §1

[6] = system: blackgrass (Alopecurus myosuroides); assay: Test A postemergence; settings: Alopecurus myosuroides, post-emergence, 240 h
In short: as §1

Kochia (Kochia scoparia) [7] = assay: Test A postemergence; settings: Bassia scoparia, post-emergence, 240 h
In short: as §1

[8] = system: ragweed (common ragweed, Ambrosia elatior); assay: Test A postemergence; settings: Ambrosia artemisiifolia, post-emergence, 240 h, 125 g ai/ha, postemergence, visual injury vs untreated controls after approx. 10 d; 0 = no effect, 100 = complete control; read-out: Ragweed plant response rating (0 to 100 scale)
In short: as §1

[9] = system: giant foxtail (Setaria faberii); assay: Test A postemergence; settings: Setaria faberi, post-emergence, 240 h
In short: as §1

rice (Oryra sativa) = assay: Test B flooded paddy test; settings: Oryza sativa, 250 g ai/ha, Flood; 0 to 100 scale where 0 is no effect and 100 is complete control; read-out: Rice plant response rating
In short: (§2)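 Rating scale 0–100 (visual, vs untreated controls) after a 13–15 d greenhouse period; application to the flood layer, 3 cm above soil and maintained; plants at 2-leaf stage when treated.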

[10] = system: barnyardgrass (Echinochloa crus-galli); assay: Test B flooded paddy test; settings: Echinochloa crus-galli, 250 g ai/ha, Flood; 0 to 100 scale where 0 is no effect and 100 is complete control; read-out: Barnyardgrass plant response rating
In short: as §2

[11] = system: ducksalad (Heteranthera limosa); assay: Test B flooded paddy test; settings: Heteranthera limosa, 250 g ai/ha, Flood; 0 to 100 scale where 0 is no effect and 100 is complete control; read-out: Ducksalad plant response rating
In short: as §2

[12] = system: sedge, umbrella (small-flower umbrella sedge, Cyperus difformis); assay: Test B flooded paddy test; settings: Cyperus difformis, 250 g ai/ha, Flood; 0 to 100 scale where 0 is no effect and 100 is complete control; read-out: Sedge, Umbrella plant response rating
In short: as §2

[13] = system: pigweed (Amaranthus retroflexus); assay: Test A preemergence; settings: Amaranthus retroflexus, pre-emergence, 240 h, 0 to 100 scale where 0 is no effect and 100 is complete control, read-out: Pigweed plant response rating
[14] = system: barnyardgrass (Echinochloa crus-galli); assay: Test A preemergence; settings: Echinochloa crus-galli, pre-emergence, 240 h, 0 to 100 scale where 0 is no effect and 100 is complete control, read-out: Barnyardgrass plant response rating
In short: as §1

[15] = system: ryegrass, Italian (Italian ryegrass, Lolium multiflorum); assay: Test A preemergence; settings: Lolium multiflorum, pre-emergence, 240 h, 0 to 100 scale where 0 is no effect and 100 is complete control, read-out: Ryegrass, Italian plant response rating
In short: as §1

Kochia (Kochia scoparia) [16] = assay: Test A preemergence; settings: Bassia scoparia, pre-emergence, 240 h, 0 to 100 scale where 0 is no effect and 100 is complete control, read-out: Kochia plant response rating
In short: as §1

[17] = system: ragweed (common ragweed, Ambrosia elatior); assay: Test A preemergence; settings: Ambrosia artemisiifolia, pre-emergence, 240 h, 0 to 100 scale where 0 is no effect and 100 is complete control, read-out: Ragweed plant response rating
In short: as §1

[18] = system: giant foxtail (Setaria faberii); assay: Test A preemergence; settings: Setaria faberi, pre-emergence, 240 h, 0 to 100 scale where 0 is no effect and 100 is complete control, read-out: Foxtail, Giant plant response rating
In short: as §1

[19] = 125 g ai/ha, preemergence, visual injury rating, approximately 10 d

Compound: COc1ccc(C(F)(F)F)cc1[C@H]1CN(C)C(=O)[C@@H]1C(=O)Nc1ccccc1SC [Compound 1185]
- plant injury at 125 g/ha [1]: 40%
- pest or weed control at 125 g/ha ([2]; 125 g ai/ha, postemergence, visual injury vs untreated controls after approx. 10 d, 0 = no effect, 100 = complete control, read-out: Galium plant response rating (0 to 100 scale)): 0%
- pest or weed control at 31 g/ha ([2]; Postemergence, 31 g ai/ha, visual injury after approx. 10 d, 0 to 100 scale, 0 no effect, 100 complete control, read-out: Plant response rating, Galium): 0%
- pest or weed control at 125 g/ha [3]: 0%
- pest or weed control at 125 g/ha ([4]; 125 g ai/ha, postemergence, visual injury vs untreated controls after approx. 10 d, 0 = no effect, 100 = complete control, read-out: Barnyardgrass plant response rating (0 to 100 scale)): 50%
- pest or weed control at 31 g/ha ([4]; Postemergence, 31 g ai/ha, visual injury after approx. 10 d, 0 to 100 scale, 0 no effect, 100 complete control, read-out: Plant response rating, Barnyardgrass): 20%
- pest or weed control at 125 g/ha [5]: 20%
- plant injury at 125 g/ha (corn (Zea mays); 125 g ai/ha, postemergence, visual injury vs untreated controls after approx. 10 d, 0 = no effect, 100 = complete control, read-out: Corn plant response rating (0 to 100 scale)): 20%
- Corn plant response rating (crop injury, 0 = no effect, 100 = complete kill) at 31 g/ha (corn (Zea mays); Postemergence, 31 g ai/ha, visual injury after approx. 10 d, 0 to 100 scale, 0 no effect, 100 complete control): 0%
- pest or weed control at 125 g/ha ([6]; 125 g ai/ha, postemergence, visual injury vs untreated controls after approx. 10 d, 0 = no effect, 100 = complete control, read-out: Blackgrass plant response rating (0 to 100 scale)): 50%
- pest or weed control at 31 g/ha ([6]; Postemergence, 31 g ai/ha, visual injury after approx. 10 d, 0 to 100 scale, 0 no effect, 100 complete control, read-out: Plant response rating, Blackgrass): 0%
- pest or weed control at 125 g/ha (Kochia (Kochia scoparia) [7]; 125 g ai/ha, postemergence, visual injury vs untreated controls after approx. 10 d, 0 = no effect, 100 = complete control, read-out: Kochia plant response rating (0 to 100 scale)): 0%
- pest or weed control at 31 g/ha (Kochia (Kochia scoparia) [7]; Postemergence, 31 g ai/ha, visual injury after approx. 10 d, 0 to 100 scale, 0 no effect, 100 complete control, read-out: Plant response rating, Kochia): 0%
- pest or weed control at 125 g/ha [8]: 0%
- pest or weed control at 125 g/ha ([9]; 125 g ai/ha, postemergence, visual injury vs untreated controls after approx. 10 d, 0 = no effect, 100 = complete control, read-out: Foxtail, Giant plant response rating (0 to 100 scale)): 60%
- pest or weed control at 31 g/ha ([9]; Postemergence, 31 g ai/ha, visual injury after approx. 10 d, 0 to 100 scale, 0 no effect, 100 complete control, read-out: Plant response rating, Foxtail, Giant): 30%
- pest or weed control at 250 g/ha (rice (Oryra sativa)): 0%
- pest or weed control at 250 g/ha [10]: 60%
- pest or weed control at 250 g/ha [11]: 50%
- pest or weed control at 250 g/ha [12]: 0%
- pest or weed control at 31 g/ha ([13]; 31 g ai/ha, Preemergence): 0%
- pest or weed control at 125 g/ha [13, 19]: 0%
- pest or weed control at 31 g/ha ([14]; 31 g ai/ha, Preemergence): 70%
- pest or weed control at 125 g/ha [14, 19]: 100%
- pest or weed control at 31 g/ha ([15]; 31 g ai/ha, Preemergence): 0%
- pest or weed control at 125 g/ha [15, 19]: 60%
- pest or weed control at 31 g/ha (Kochia (Kochia scoparia) [16]; 31 g ai/ha, Preemergence): 0%
- pest or weed control at 125 g/ha (Kochia (Kochia scoparia) [16]; [19]): 0%
- pest or weed control at 31 g/ha ([17]; 31 g ai/ha, Preemergence): 0%
- pest or weed control at 125 g/ha [17, 19]: 0%
- pest or weed control at 31 g/ha ([18]; 31 g ai/ha, Preemergence): 50%
- pest or weed control at 125 g/ha [18, 19]: 90%
